According to US6518243B1, “Desleucyl glycopeptide antibiotics and methods of making same” (Trustees of Princeton University, priority 1999, dated 2003):

Assays:
E. faecalis (CL 4877) = assay: Zone of inhibition screen, 96 well agar array format; assay type: cell-based; design: scale not given here
How it was run: (§1)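 Each compound was tested for antibacterial activity against a shared bacterial panel, with screening carried out on agar in a 96-well array.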

[1] = tested on: S. epidermidis (ATCC 12228); assay: as above; assay type: cell-based; design: scale not given here
How it was run: as §1

[2] = zone of inhibition relative to 1 mg/ml stock solution of p-chlorobiphenylvancomycin
[3] = zone of inhibition relative to 1 mg/ml p-chlorobiphenylvancomycin

SMILES	zone score, E. faecalis CL 4877 (E. faecalis (CL 4877); [2])	zone score, S. epidermidis ATCC 12228 [1, 2]	zone score, E. faecalis CL 4877 (E. faecalis (CL 4877); [3])	zone score, S. epidermidis ATCC 12228 [1, 3]
CC1OC(OC2C(Oc3c4cc5cc3Oc3ccc(cc3Cl)C(O)C3NC(=O)C(NC(=O)C5NC(=O)C(CC(N)=O)NC(=O)C(NC(=O)CC(NC(=O)OC(C)(C)C)C(N)=O)C(O)c5ccc(c(Cl)c5)O4)c4ccc(O)c(c4)-c4c(O)cc(O)cc4C(C(=O)O)NC3=O)OC(CO)C(O)C2O)CC(C)(NCc2ccc(-c3ccc(Cl)cc3)cc2)C1O (centres unmarked) [Compound 134]	2	2	–	–
CC1OC(OC2C(Oc3c4cc5cc3Oc3ccc(cc3Cl)[C@@H](O)[C@@H](NC(=O)/C=C\C(N)=O)C(=O)N[C@@H](CC(N)=O)C(=O)N[C@H]5C(=O)NC3C(=O)N[C@H](C(=O)N[C@@H](C(=O)O)c5cc(O)cc(O)c5-c5cc3ccc5O)[C@H](O)c3ccc(c(Cl)c3)O4)OC(CO)C(O)C2O)CC(C)(NCc2ccc(-c3ccc(Cl)cc3)cc2)C1O (some centres unmarked) [Compound 170]	2	2	–	–
CSCCC(NC(C)=O)C(=O)NC1C(=O)NC(CC(N)=O)C(=O)NC2C(=O)NC3C(=O)NC(C(=O)NC(C(=O)O)c4cc(O)cc(O)c4-c4cc3ccc4O)C(O)c3ccc(c(Cl)c3)Oc3cc2cc(c3OC2OC(CO)C(O)C(O)C2OC2CC(C)(NCc3ccc(-c4ccc(Cl)cc4)cc3)C(O)C(C)O2)Oc2ccc(cc2Cl)C1O (centres unmarked) [Compound 182]	2	2	–	–
CC1OC(OC2C(Oc3c4cc5cc3Oc3ccc(cc3Cl)C(O)C3NC(=O)C(NC(=O)C5NC(=O)C(CC(N)=O)NC(=O)C(NC(=O)CNC=O)C(O)c5ccc(c(Cl)c5)O4)c4ccc(O)c(c4)-c4c(O)cc(O)cc4C(C(=O)O)NC3=O)OC(CO)C(O)C2O)CC(C)(NCc2ccc(-c3ccc(Cl)cc3)cc2)C1O (centres unmarked) [Compound 193]	2	2	–	–
CC1OC(OC2C(Oc3c4cc5cc3Oc3ccc(cc3Cl)C(O)C3NC(=O)C(NC(=O)C5NC(=O)C(CC(N)=O)NC(=O)C(NC(=O)Cn5cnnn5)C(O)c5ccc(c(Cl)c5)O4)c4ccc(O)c(c4)-c4c(O)cc(O)cc4C(C(=O)O)NC3=O)OC(CO)C(O)C2O)CC(C)(NCc2ccc(-c3ccc(Cl)cc3)cc2)C1O (centres unmarked) [Compound 228]	–	–	2	2
CC1OC(OC2C(Oc3c4cc5cc3Oc3ccc(cc3Cl)C(O)C3NC(=O)C(NC(=O)C5NC(=O)C(CC(N)=O)NC(=O)C(NC(=O)c5cccnc5N)C(O)c5ccc(c(Cl)c5)O4)c4ccc(O)c(c4)-c4c(O)cc(O)cc4C(C(=O)O)NC3=O)OC(CO)C(O)C2O)CC(C)(NCc2ccc(-c3ccc(Cl)cc3)cc2)C1O (centres unmarked) [Compound 237]	–	–	2	2
CC1OC(OC2C(Oc3c4cc5cc3Oc3ccc(cc3Cl)C(O)C3NC(=O)C(NC(=O)C5NC(=O)C(CC(N)=O)NC(=O)C(NC(=O)c5cccc(C(F)(F)F)c5)C(O)c5ccc(c(Cl)c5)O4)c4ccc(O)c(c4)-c4c(O)cc(O)cc4C(C(=O)O)NC3=O)OC(CO)C(O)C2O)CC(C)(NCc2ccc(-c3ccc(Cl)cc3)cc2)C1O (centres unmarked) [Compound 247]	–	–	2	2
CC1OC(OC2C(Oc3c4cc5cc3Oc3ccc(cc3Cl)C(O)C3NC(=O)C(NC(=O)C5NC(=O)C(CC(N)=O)NC(=O)C(NC(=O)c5cccc(O)n5)C(O)c5ccc(c(Cl)c5)O4)c4ccc(O)c(c4)-c4c(O)cc(O)cc4C(C(=O)O)NC3=O)OC(CO)C(O)C2O)CC(C)(NCc2ccc(-c3ccc(Cl)cc3)cc2)C1O (centres unmarked) [Compound 277]	–	–	2	2
CC(=O)NC1C(=O)NC(CC(N)=O)C(=O)NC2C(=O)NC3C(=O)NC(C(=O)NC(C(=O)O)c4cc(O)cc(O)c4-c4cc3ccc4O)C(O)c3ccc(c(Cl)c3)Oc3cc2cc(c3OC2OC(CO)C(O)C(O)C2OC2CC(C)(NCc3ccc(-c4ccc(Cl)cc4)cc3)C(O)C(C)O2)Oc2ccc(cc2Cl)C1O (centres unmarked) [Compound 279]	–	–	2	2
CC1OC(OC2C(Oc3c4cc5cc3Oc3ccc(cc3Cl)C(O)C3NC(=O)C(NC(=O)C5NC(=O)C(CC(N)=O)NC(=O)C(NC(=O)c5ccccc5N)C(O)c5ccc(c(Cl)c5)O4)c4ccc(O)c(c4)-c4c(O)cc(O)cc4C(C(=O)O)NC3=O)OC(CO)C(O)C2O)CC(C)(NCc2ccc(-c3ccc(Cl)cc3)cc2)C1O (centres unmarked) [Compound 280]	–	–	2	2
CC1NC(=O)NC1CCCCCC(=O)NC1C(=O)NC(CC(N)=O)C(=O)NC2C(=O)NC3C(=O)NC(C(=O)NC(C(=O)O)c4cc(O)cc(O)c4-c4cc3ccc4O)C(O)c3ccc(c(Cl)c3)Oc3cc2cc(c3OC2OC(CO)C(O)C(O)C2OC2CC(C)(NCc3ccc(-c4ccc(Cl)cc4)cc3)C(O)C(C)O2)Oc2ccc(cc2Cl)C1O (centres unmarked) [Compound 284]	–	–	2	2
CCOC(=O)C=CC(=O)NC1C(=O)NC(CC(N)=O)C(=O)NC2C(=O)NC3C(=O)NC(C(=O)NC(C(=O)O)c4cc(O)cc(O)c4-c4cc3ccc4O)C(O)c3ccc(c(Cl)c3)Oc3cc2cc(c3OC2OC(CO)C(O)C(O)C2OC2CC(C)(NCc3ccc(-c4ccc(Cl)cc4)cc3)C(O)C(C)O2)Oc2ccc(cc2Cl)C1O (centres unmarked) [Compound 288]	–	–	2	2
CC1OC(OC2C(Oc3c4cc5cc3Oc3ccc(cc3Cl)C(O)C3NC(=O)C(NC(=O)C5NC(=O)C(CC(N)=O)NC(=O)C(NC(=O)c5ccncc5)C(O)c5ccc(c(Cl)c5)O4)c4ccc(O)c(c4)-c4c(O)cc(O)cc4C(C(=O)O)NC3=O)OC(CO)C(O)C2O)CC(C)(NCc2ccc(-c3ccc(Cl)cc3)cc2)C1O (centres unmarked) [Compound 292]	–	–	2	2
CC(O)C(=O)NC1C(=O)NC(CC(N)=O)C(=O)NC2C(=O)NC3C(=O)NC(C(=O)NC(C(=O)O)c4cc(O)cc(O)c4-c4cc3ccc4O)C(O)c3ccc(c(Cl)c3)Oc3cc2cc(c3OC2OC(CO)C(O)C(O)C2OC2CC(C)(NCc3ccc(-c4ccc(Cl)cc4)cc3)C(O)C(C)O2)Oc2ccc(cc2Cl)C1O (centres unmarked) [Compound 294]	–	–	2	2
CC(=O)CCC(=O)NC1C(=O)NC(CC(N)=O)C(=O)NC2C(=O)NC3C(=O)NC(C(=O)NC(C(=O)O)c4cc(O)cc(O)c4-c4cc3ccc4O)C(O)c3ccc(c(Cl)c3)Oc3cc2cc(c3OC2OC(CO)C(O)C(O)C2OC2CC(C)(NCc3ccc(-c4ccc(Cl)cc4)cc3)C(O)C(C)O2)Oc2ccc(cc2Cl)C1O (centres unmarked) [Compound 295]	–	–	2	2
CCOC(=O)C=CC(=O)NC1C(=O)NC(CC(N)=O)C(=O)NC2C(=O)NC3C(=O)NC(C(=O)NC(C(=O)O)c4cc(O)cc(O)c4-c4cc3ccc4O)C(O)c3ccc(c(Cl)c3)Oc3cc2cc(c3OC2OC(CO)C(O)C(O)C2OC2CC(C)(NCc3ccc(-c4ccc(Cl)cc4)cc3)C(O)C(C)O2)Oc2ccc(cc2Cl)C1O (centres unmarked) [Compound 296]	–	–	2	2
